Results reported in patent US20110034378A1, “Pharmaceutical Combinations Comprising Specified Age Breaker and Further Drugs, I.A. Antihypertensive Drugs, Antidiabetic Drugs Etc” (priority 2008, published 2011).

System: obese Zucker spontaneously hypertensive fatty rats (Ob-ZSF1)
Assay: Effect of compound 27 on diabetic cardiomyopathy and nephropathy in Ob-ZSF1 rats
Assay type: in vivo, rat
Protocol: Aim: The aim of this study was to study the effect of compound 27 on diabetic cardiomyopathy and nephropathy in obese Zucker spontaneously hypertensive fatty rats (Ob-ZSF1), an animal model of diabetes with progressive cardiac and renal dysfunction.
Method: Male Ob-ZSF1 rats were implanted with telemetry transmitters. At the age of 3 months, rats were divided into two treatment groups, compound 27, 9 mg/kg ip bid and 27 mg/kg ip, bid and a control group to which vehicle was administered until study termination at 34 weeks. 0.5% salt was added in drinking water from […] of treatment for 6 weeks in order to accelerate the vasculopathy. At fixed predetermined time intervals, blood pressure, urine albumin and creatinine were monitored during the study. Terminal measurement of cardiac function was performed in the same animals using Millar Pressure Volume (P-V) System. PV loops were captured to establish cardiac functional parameters and differences in end systolic pressure volume relationship (ESPVR) and end diastolic pressure volume relationship (EDPVR) at different preloads. Heart and kidney were collected from same set of animals at termination for gross and microscopic histopathological examination and for gene expression studies.

[1] = 9 and 27 mg/kg ip bid, terminal Millar P-V measurement, vs vehicle control
[2] = longitudinally over time, compared to control
[3] = persistent severe hyperglycemia

CS(=O)(=O)NNC(=O)c1ccc[n+](CC(=O)c2cccs2)c1.[Cl-] [compound 27, 1-(2-thien-2′-yl-2-oxoethyl)-3-(methanesulfonyl hydrazinocarbonyl)pyridinium chloride]
Relative heart wet weight (27 mg/kg group): significantly lesser
damage to cardiomyocytes, microscopic examination (27 mg/kg group, compared to the control group): less severe damage
cardiac output (9 and 27 mg/kg ip bid, terminal Millar P-V measurement at 34 weeks, vs vehicle control): significant improvement
diastolic relaxation [1]: more efficient
systolic contractile function [1]: better
ventricular compliance [1]: improved
peripheral resistance (afterload) (9 and 27 mg/kg ip bid, vs vehicle control): significant reduction
renal pathology observed microscopically (compared to control): less severe
Inflammatory cytokine Interleukin-6 (IL-6) (compound 27 treated groups): reduced significantly
Renal function (higher dose group, compared to control): distinct improvement
Percent increase from baseline for albumin to creatinine ratio [2]: significantly reduced
Percent increase from baseline for serial creatinine excretion [2]: significantly reduced
Percent increase from baseline for urinary albumin excretion [2]: significantly reduced
Brain natriuretic peptide (BNP) expression (marker of cardiac failure, compared to control animals): reduced
cardiac function (conclusion) [3]: clearly preserved
renal dysfunction (conclusion) [3]: reduced the severity
BP (telemetry, compound 27 treated animals): reduction
